Results published in US8093273B2, “Flavanoids and isoflavanoids for the prevention and treatment of cardiovascular diseases” (Resverlogix Corp., priority 2004, dated 2012).

Columns and labels:
human ApoA-I promoter [1] = experiment: ApoA-I promoter induction in HepG2 liver cells (pAI.474-Luc luciferase reporter); type: cell-based; details: average values at 15 μM, 48 hours incubation
Protocol: This study determined whether compounds of the invention have an effect on ApoA-I promoter activity expression in HepG2 cells, a liver cell line. Cells were grown under conditions recommended by the ATCC and summarized by Wong.
The promoter region of the gene encoding human ApoA-I was isolated and ligated upstream the structure gene of firefly luciferase to construct a reporter plasmid (pAI.474-Luc). The reporter plasmid, along with pRSV-β-galactosidase (as a control for transfection efficiency), were co-transfected into HepG2 cells. The cells were then incubated in an MEM selection media containing 20% fetal calf serum supplemented with G418 (final concentration: 0.5 mg/mL, Gibco) to give established strains that stably express from the reporter gene. The strains were seeded to a 6-well culture plates and incubated for 48 hours at 37° C. under 5% carbon dioxide. Cells were starved for 24 hrs in MEM selection media containing 0.5% FBS. Then, a solution of the compounds of the invention in DMSO (or other appropriate solvent) was added to the wells at a final concentration of 0 to 100 μM in MEM selection media containing 0.5% FBS.
After further incubation for 48 hours, the cells were harvested and lysed using Reporter Lysis Buffer (PROMEGA E3971), and 50 μL of luciferase assay reagent (PROMEGA E4550 Luciferase Reporter 1000 assay system) were added to measure luciferase activity with a luminometer (Fluoroskan Ascent FL from Thermo electron Corporation). Luciferase activity was normalized to lysate protein concentrations, measured using Bradford Reagent (Biorad Protein Assay reagent Cat #500-0006).

human ApoA-I promoter [2] = experiment: ApoA-I promoter induction in Caco-2 intestinal cells (pAI.474-Luc luciferase reporter); type: cell-based; details: Caco-2 cells, 15 μM, 48 hours incubation, luciferase activity vs control samples
How it was run: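 Caco-2 cells stably carrying the human ApoA-I promoter–firefly luciferase construct (pAI.474-Luc) were starved 24 h in 0.5% FBS medium, then exposed to compound at 0 to 100 μM final for 48 h at 37° C. Luciferase activity in lysates was normalized to Bradford protein and compared with solvent-only and untreated controls.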

melting point [°C] | Structure (SMILES) | ApoA-I Promoter Induction (human ApoA-I promoter [1]) | ApoA-I Promoter Induction (human ApoA-I promoter [2])
246 to 247 | O=c1cc(-c2ccc(O)cc2)oc2ccc(CO)cc12 [Example 11, 6-Hydroxymethyl-2-(4-hydroxyphenyl)chromen-4-one] | increased | –
275 to 276 | O=c1cc(-c2ccc(O)c(F)c2)oc2ccccc12 [Example 12, 2-(3-Fluoro-4-hydroxyphenyl)chromen-4-one] | increased | –
262 to 265 | O=c1cc(-c2ccc(CO)cc2)oc2ccc(O)cc12 [Example 14, 6-Hydroxy-2-(4-hydroxymethylphenyl)chromen-4-one] | increased | –
– | O=C(Oc1ccc(-c2cc(=O)c3c(OC(=O)c4cccnc4)cc(OC(=O)c4cccnc4)cc3o2)cc1)c1cccnc1 [Example 74, 2-(4-Nicotinoyloxy)phenyl)-oxo-4H-chromene-5,7-diyl dinicotinate] | increased | increased
